± gives the uncertainty stated by the source.
Experiment: xn = mol fraction of the nth substance listed

CCCCN(CCCC)CCCC + CCCO
viscosity [mPa·s]
Settings	298.15 K	303.15 K	308.15 K	313.15 K	318.15 K	323.15 K
101.3 kPa, x1 = 0.0929	–	1.75 ± 0.021	–	1.364 ± 0.017	–	–
101.3 kPa, x1 = 0.1877	–	1.712 ± 0.02	–	1.328 ± 0.016	–	–
101.3 kPa, x1 = 0.2897	–	–	–	1.289 ± 0.016	–	–
101.3 kPa, x1 = 0.3991	–	1.605 ± 0.019	–	1.245 ± 0.015	–	–
101.3 kPa, x1 = 0.5176	–	1.529 ± 0.018	–	–	–	–
101.3 kPa, x1 = 0.616	–	1.462 ± 0.017	–	–	–	–
101.3 kPa, x1 = 0.7064	–	1.392 ± 0.017	–	–	–	–
101.3 kPa, x1 = 0.8055	–	1.307 ± 0.016	–	–	–	–
101.3 kPa, x1 = 0.8864	–	1.252 ± 0.015	–	–	–	–
101.33 kPa, x1 = 0.0994	–	–	–	1.412 ± 0.085	–	1.318 ± 0.08
101.33 kPa, x1 = 0.1089	1.974 ± 0.12	–	1.622 ± 0.098	–	1.465 ± 0.089	–
101.33 kPa, x1 = 0.1447	–	1.7 ± 0.1	–	1.398 ± 0.085	–	1.343 ± 0.081
101.33 kPa, x1 = 0.1916	–	–	–	1.375 ± 0.083	–	1.342 ± 0.081
101.33 kPa, x1 = 0.2045	1.895 ± 0.12	–	1.558 ± 0.094	–	1.436 ± 0.087	–
101.33 kPa, x1 = 0.2539	1.845 ± 0.11	1.603 ± 0.097	1.519 ± 0.092	1.34 ± 0.081	1.403 ± 0.085	1.315 ± 0.079
101.33 kPa, x1 = 0.3026	1.795 ± 0.11	1.558 ± 0.094	1.481 ± 0.09	1.308 ± 0.079	1.366 ± 0.083	1.283 ± 0.078
101.33 kPa, x1 = 0.3485	–	1.517 ± 0.092	–	1.277 ± 0.077	–	1.247 ± 0.075
101.33 kPa, x1 = 0.3584	1.739 ± 0.11	–	1.437 ± 0.087	–	1.32 ± 0.08	–
101.33 kPa, x1 = 0.4003	1.7 ± 0.1	1.473 ± 0.089	1.407 ± 0.085	1.244 ± 0.075	1.286 ± 0.078	1.206 ± 0.073
101.33 kPa, x1 = 0.4469	1.66 ± 0.1	1.436 ± 0.087	1.375 ± 0.083	1.216 ± 0.074	1.249 ± 0.076	1.17 ± 0.071
101.33 kPa, x1 = 0.4987	1.619 ± 0.098	1.4 ± 0.085	1.342 ± 0.081	1.187 ± 0.072	1.211 ± 0.073	1.133 ± 0.068
101.33 kPa, x1 = 0.5417	–	1.372 ± 0.083	–	1.165 ± 0.07	–	1.104 ± 0.067
101.33 kPa, x1 = 0.5569	1.58 ± 0.096	–	1.309 ± 0.079	–	1.171 ± 0.071	–
101.33 kPa, x1 = 0.6053	1.551 ± 0.094	1.335 ± 0.081	1.284 ± 0.078	1.136 ± 0.069	1.14 ± 0.069	1.065 ± 0.064
101.33 kPa, x1 = 0.6587	1.523 ± 0.092	–	1.259 ± 0.076	–	1.108 ± 0.067	–
101.33 kPa, x1 = 0.6973	1.504 ± 0.091	1.289 ± 0.078	1.242 ± 0.075	1.098 ± 0.066	1.085 ± 0.066	1.012 ± 0.061
101.33 kPa, x1 = 0.7606	1.474 ± 0.089	–	1.216 ± 0.074	–	1.047 ± 0.063	–
101.33 kPa, x1 = 0.7832	–	1.251 ± 0.076	–	1.066 ± 0.064	–	0.962 ± 0.058
101.33 kPa, x1 = 0.8067	1.454 ± 0.088	–	1.197 ± 0.072	–	1.02 ± 0.062	–
101.33 kPa, x1 = 0.9104	1.409 ± 0.085	–	1.156 ± 0.07	–	0.959 ± 0.058	–
101.33 kPa, x1 = 0.9361	–	1.189 ± 0.072	–	1.013 ± 0.061	–	0.873 ± 0.053
101.33 kPa, x1 = 0.9688	–	1.177 ± 0.071	–	1.004 ± 0.061	–	0.858 ± 0.052

CCCCN(CCCC)CCCC + CO
viscosity [mPa·s], 101.33 kPa
Settings	298.15 K	303.15 K	308.15 K	313.15 K	318.15 K	323.15 K
x1 = 0.1015	–	0.881 ± 0.053	–	0.778 ± 0.047	–	0.675 ± 0.041
x1 = 0.1093	1.013 ± 0.061	–	0.889 ± 0.054	–	0.735 ± 0.044	–
x1 = 0.1551	–	1.008 ± 0.061	–	0.896 ± 0.054	–	0.787 ± 0.048
x1 = 0.2027	1.21 ± 0.073	–	1.07 ± 0.065	–	0.919 ± 0.056	–
x1 = 0.2166	–	1.106 ± 0.067	–	0.994 ± 0.06	–	0.895 ± 0.054
x1 = 0.256	1.278 ± 0.077	–	1.132 ± 0.068	–	0.992 ± 0.06	–
x1 = 0.2933	–	1.177 ± 0.071	–	1.068 ± 0.065	–	0.984 ± 0.059
x1 = 0.3035	1.319 ± 0.08	–	1.169 ± 0.071	–	1.036 ± 0.063	–
x1 = 0.3493	–	1.208 ± 0.073	–	1.101 ± 0.067	–	1.027 ± 0.062
x1 = 0.362	1.353 ± 0.082	–	1.197 ± 0.072	–	1.066 ± 0.064	–
x1 = 0.404	1.369 ± 0.083	–	1.208 ± 0.073	–	1.073 ± 0.065	–
x1 = 0.4195	–	1.228 ± 0.074	–	1.12 ± 0.068	–	1.044 ± 0.063
x1 = 0.4528	1.383 ± 0.084	–	1.215 ± 0.073	–	1.07 ± 0.065	–
x1 = 0.4998	–	1.235 ± 0.075	–	1.118 ± 0.068	–	1.03 ± 0.062
x1 = 0.5101	1.394 ± 0.084	–	1.216 ± 0.073	–	1.054 ± 0.064	–
x1 = 0.5426	–	1.235 ± 0.075	–	1.108 ± 0.067	–	1.011 ± 0.061
x1 = 0.5541	1.4 ± 0.085	–	1.213 ± 0.073	–	1.036 ± 0.063	–
x1 = 0.604	1.404 ± 0.085	–	1.208 ± 0.073	–	1.014 ± 0.061	–
x1 = 0.6175	–	1.232 ± 0.074	–	1.093 ± 0.066	–	0.974 ± 0.059
x1 = 0.6459	–	1.233 ± 0.075	–	1.085 ± 0.066	–	0.961 ± 0.058
x1 = 0.6609	1.408 ± 0.085	–	1.2 ± 0.073	–	0.989 ± 0.06	–
x1 = 0.6925	1.409 ± 0.085	–	1.194 ± 0.072	–	0.977 ± 0.059	–
x1 = 0.7057	–	1.224 ± 0.074	–	1.069 ± 0.065	–	0.932 ± 0.056
x1 = 0.7264	1.409 ± 0.085	–	1.188 ± 0.072	–	0.966 ± 0.058	–
x1 = 0.763	–	1.217 ± 0.074	–	1.052 ± 0.064	–	0.911 ± 0.055
x1 = 0.8027	1.405 ± 0.085	–	1.172 ± 0.071	–	0.95 ± 0.057	–
x1 = 0.8237	–	1.205 ± 0.073	–	1.039 ± 0.063	–	0.897 ± 0.054
x1 = 0.8877	–	1.19 ± 0.072	–	1.022 ± 0.062	–	0.885 ± 0.053
x1 = 0.8925	1.395 ± 0.084	–	1.151 ± 0.07	–	0.941 ± 0.057	–
x1 = 0.9438	–	1.178 ± 0.071	–	1.011 ± 0.061	–	0.873 ± 0.053

— the CheMixHub viscosity set
